Laboratory results as given in patent US8426353B2, “Process for preparing polyurea microcapsules” (Firmenich SA, priority 2008, dated 2013).
Where two headings read alike, the source gives them in different places.

Columns and labels:
[1] = GC-MS analysis of perfume leaked out of the capsules during one month storage in concentrated fabric softener; format: physicochemical; conditions: for Percentage of ingredient having leaked out of the capsules during one month storage, % In fabric softener 37° C.: perfume of Example 6 encapsulated per Example 2, capsules at 1.25%; for Percentage of ingredient having leaked out of the capsules during one month storage, % In fabric softener 37° C. / Percentage of perfume having leaked out of the capsules upon one month storage, % In fabric softener at 37° C.: one month at 37° C.; for Percentage of perfume having leaked out of the capsules upon one month storage, % In fabric softener at 22° C. / Percentage of perfume having leaked out of the capsules upon one month storage, % In fabric softener at 37° C.: perfume of Example 9 encapsulated per Example 2, capsules at 1.25%; for Percentage of perfume having leaked out of the capsules upon one month storage, % In fabric softener at 22° C.: one month at 22° C.
Description: The concentrated fabric softener base was prepared by admixing the ingredients listed in Table 4, in the amounts indicated.

[2] = LogP of the perfume ingredients
[3] = GC-MS analysis of perfume leaked out of the capsules during one month storage in concentrated liquid detergent; format: physicochemical; conditions: for Percentage of ingredient having leaked out of the capsules during one month storage, % In concentrated Liquid Detergent 22° C. / Percentage of ingredient having leaked out of the capsules during one month storage, % In concentrated Liquid Detergent 37° C.: perfume of Example 6 encapsulated per Example 2, capsules at 1.25% in Tide 2x Concentrated HE Free; for Percentage of ingredient having leaked out of the capsules during one month storage, % In concentrated Liquid Detergent 22° C. / Percentage of perfume having leaked out of the capsules upon one month storage, % In Concentrated Liquid Detergent at 22° C.: one month at 22° C.; for Percentage of ingredient having leaked out of the capsules during one month storage, % In concentrated Liquid Detergent 37° C. / Percentage of perfume having leaked out of the capsules upon one month storage, % In Concentrated Liquid Detergent at 37° C.: one month at 37° C.; for Percentage of perfume having leaked out of the capsules upon one month storage, % In Concentrated Liquid Detergent at 22° C. / Percentage of perfume having leaked out of the capsules upon one month storage, % In Concentrated Liquid Detergent at 37° C.: perfume of Example 9 encapsulated per Example 2, capsules at 1.25% in Tide 2x Concentrated HE Free
Excerpt: The concentrated liquid detergent base was a commercially available Tide® 2× Concentrated HE Free of perfume & dye (trademark of Procter and Gamble, USA).
The concentrated liquid detergent base was the commercially available Tide® 2× Concentrated HE Free of perfume & dye (trademark of Procter and Gamble, USA).

[4] = ingredients of the perfume of Example 9 (Table 9)
[5] = ingredients of the perfume of Example 6 (Table 1)

SMILES | Percentage of ingredient having leaked out of the capsules during one month storage, % In fabric softener 37° C. [1] [%] | LogP [2] | Percentage of ingredient having leaked out of the capsules during one month storage, % In concentrated Liquid Detergent 22° C. [3] [%] | Percentage of ingredient having leaked out of the capsules during one month storage, % In concentrated Liquid Detergent 37° C. [3] [%] | Percentage of perfume having leaked out of the capsules upon one month storage, % In fabric softener at 22° C. [1] [%] | Percentage of perfume having leaked out of the capsules upon one month storage, % In fabric softener at 37° C. [1] [%] | LogP [2, 4] | Percentage of perfume having leaked out of the capsules upon one month storage, % In Concentrated Liquid Detergent at 22° C. [3] [%] | Percentage of perfume having leaked out of the capsules upon one month storage, % In Concentrated Liquid Detergent at 37° C. [3] [%] | LogP [2, 5]
C=CCCC(=O)C1=CCCC(C)(C)C1 [Neobutenone ® alpha, 1-(5,5-dimethyl-1-cyclohexen-1-yl)-4-penten-1-one] | 9 | 4.45 | 1 | 27 |  |  |  |  |  | 
CCCC(C)C(=O)OCC (stereo not shown) [Ethyl 2-methyl-pentanoate] |  |  |  |  | 48 | 99 | 2.76 | 48 | 99 | 
CC(C)=CCCC1=CCC(C)(C=O)CC1 (stereo not shown) [1-Methyl-4-(4-methyl-3-pentenyl)-3-cyclohexene-1-carbaldehyde] | 1 | 5.19 | 2 | 20 |  |  |  |  |  | 
CC(=O)OC1CC2CC1C1CC=CC21 (stereo not shown) [Verdyl acetate, Verdyl Acetate] |  |  |  |  | 6 | 10 | 2.85 | 6 | 80 | 
CC(=O)OC1CCC(C(C)(C)C)CC1 (stereo not shown) [Lorysia ®, 4-(1,1-dimethylethyl)-1-cyclohexyl acetate] | 5 | 4.42 | 1 | 11 |  |  |  |  |  | 
C/C=C/C(=O)C1C(C)C=CCC1(C)C (stereo not shown) [δ-Damascone] | 3 |  | 1 | 8 | 3 | 10 | 4.13 | 3 | 16 | 4.13
CC(C)=CC1CC(C)CCO1 (stereo not shown) [Rose oxide] |  |  |  |  | 8 | 68 | 3.58 | 8 | 92 | 
CC12CCC(CC1)C(C)(C)O2 [1,8-Cineole] | 11 |  | 2 | 21 |  |  |  |  |  | 3.13
